Experimental data: PubChem BioAssay (NCI)
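Method: 48-hour compound exposure of cells in 96-well plates, five concentrations, linear interpolation of endpoints. GI50 is the concentration that inhibits growth by half. The concentration for full growth arrest is given as TGI.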

Key:
Experiment in all cases: growth of human tumour cells (NCI), 48 h
786-0 renal = tested on: 786-0 renal
A498 renal = tested on: A498 renal
A549 NSCLC = tested on: A549 NSCLC
ACHN renal = tested on: ACHN renal
BT-549 breast = tested on: BT-549 breast
CAKI-1 renal = tested on: CAKI-1 renal
CCRF-CEM leukemia = tested on: CCRF-CEM leukemia
COLO 205 colon = tested on: COLO 205 colon
DU-145 prostate = tested on: DU-145 prostate
EKVX NSCLC = tested on: EKVX NSCLC
HCC-2998 colon = tested on: HCC-2998 colon
HCT-116 colon = tested on: HCT-116 colon
HCT-15 colon = tested on: HCT-15 colon
HL-60(TB) leukemia = tested on: HL-60(TB) leukemia
HOP-62 NSCLC = tested on: HOP-62 NSCLC
HOP-92 NSCLC = tested on: HOP-92 NSCLC
HS 578T breast = tested on: HS 578T breast
HT29 colon = tested on: HT29 colon
IGROV1 ovarian = tested on: IGROV1 ovarian
K-562 leukemia = tested on: K-562 leukemia
KM12 colon = tested on: KM12 colon
LOX IMVI melanoma = tested on: LOX IMVI melanoma
M14 melanoma = tested on: M14 melanoma
MALME-3M melanoma = tested on: MALME-3M melanoma
MCF7 breast = tested on: MCF7 breast
MDA-MB-231 breast = tested on: MDA-MB-231 breast
MOLT-4 leukemia = tested on: MOLT-4 leukemia
NCI-H226 lung = tested on: NCI-H226 lung
NCI-H23 lung = tested on: NCI-H23 lung
NCI-H460 lung = tested on: NCI-H460 lung
NCI-H522 lung = tested on: NCI-H522 lung
NCI/ADR-RES ovarian = tested on: NCI/ADR-RES ovarian
OVCAR-4 ovarian = tested on: OVCAR-4 ovarian
OVCAR-5 ovarian = tested on: OVCAR-5 ovarian
OVCAR-8 ovarian = tested on: OVCAR-8 ovarian
PC-3 prostate = tested on: PC-3 prostate
RPMI-8226 leukemia = tested on: RPMI-8226 leukemia
RXF 393 renal = tested on: RXF 393 renal
SF-268 CNS = tested on: SF-268 CNS
SF-295 CNS = tested on: SF-295 CNS
SF-539 CNS = tested on: SF-539 CNS
SK-MEL-2 melanoma = tested on: SK-MEL-2 melanoma
SK-MEL-28 melanoma = tested on: SK-MEL-28 melanoma
SK-MEL-5 melanoma = tested on: SK-MEL-5 melanoma
SK-OV-3 ovarian = tested on: SK-OV-3 ovarian
SN12C renal = tested on: SN12C renal
SNB-19 CNS = tested on: SNB-19 CNS
SNB-75 CNS = tested on: SNB-75 CNS
SR leukemia = tested on: SR leukemia
SW-620 colon = tested on: SW-620 colon
T-47D breast = tested on: T-47D breast
TK-10 renal = tested on: TK-10 renal
U251 CNS = tested on: U251 CNS
UACC-257 melanoma = tested on: UACC-257 melanoma
UACC-62 melanoma = tested on: UACC-62 melanoma
UO-31 renal = tested on: UO-31 renal

CCn1c2ccccc2c2cc(-n3nncc3-c3ccccc3)ccc21
GI50 (786-0 renal): 340 nM
TGI (786-0 renal): > 100000 nM
GI50 (A498 renal): 95.4 nM
TGI (A498 renal): 799 nM
GI50 (A549 NSCLC): 208 nM
TGI (A549 NSCLC): > 100000 nM
GI50 (ACHN renal): 301 nM
TGI (ACHN renal): > 100000 nM
GI50 (BT-549 breast): 147 nM
TGI (BT-549 breast): 2030 nM
GI50 (CAKI-1 renal): 77.5 nM
TGI (CAKI-1 renal): > 100000 nM
GI50 (CCRF-CEM leukemia): 203 nM
TGI (CCRF-CEM leukemia): > 100000 nM
GI50 (COLO 205 colon): 134 nM
TGI (COLO 205 colon): 438 nM
GI50 (DU-145 prostate): 375 nM
GI50 (EKVX NSCLC): 532 nM
TGI (EKVX NSCLC): > 100000 nM
GI50 (HCC-2998 colon): 277 nM
TGI (HCC-2998 colon): > 52400 nM
GI50 (HCT-116 colon): 72.2 nM
GI50 (HCT-15 colon): 67 nM
TGI (HCT-15 colon): > 100000 nM
GI50 (HL-60(TB) leukemia): 69.7 nM
TGI (HL-60(TB) leukemia): > 20300 nM
GI50 (HOP-62 NSCLC): 141 nM
TGI (HOP-62 NSCLC): > 100000 nM
TGI (HOP-92 NSCLC): > 77600 nM
GI50 (HS 578T breast): 61.5 nM
TGI (HS 578T breast): > 100000 nM
GI50 (HT29 colon): 117 nM
TGI (HT29 colon): 927 nM
GI50 (IGROV1 ovarian): 164 nM
TGI (IGROV1 ovarian): > 100000 nM
GI50 (K-562 leukemia): 40.7 nM
TGI (K-562 leukemia): > 100000 nM
GI50 (KM12 colon): 49 nM
GI50 (LOX IMVI melanoma): 129 nM
TGI (LOX IMVI melanoma): > 100000 nM
GI50 (M14 melanoma): 82.9 nM
TGI (M14 melanoma): > 100000 nM
GI50 (MALME-3M melanoma): 2430 nM
TGI (MALME-3M melanoma): > 100000 nM
GI50 (MCF7 breast): 269 nM
TGI (MCF7 breast): > 100000 nM
GI50 (MDA-MB-231 breast): 540 nM
TGI (MDA-MB-231 breast): > 100000 nM
GI50 (MOLT-4 leukemia): 350 nM
TGI (MOLT-4 leukemia): > 100000 nM
GI50 (NCI-H226 lung): 519 nM
TGI (NCI-H226 lung): > 100000 nM
GI50 (NCI-H23 lung): 375 nM
TGI (NCI-H23 lung): > 100000 nM
GI50 (NCI-H460 lung): 81 nM
TGI (NCI-H460 lung): > 62600 nM
GI50 (NCI-H522 lung): 30.2 nM
TGI (NCI-H522 lung): 145 nM
GI50 (NCI/ADR-RES ovarian): 53.4 nM
TGI (NCI/ADR-RES ovarian): > 100000 nM
GI50 (OVCAR-4 ovarian): 29700 nM
TGI (OVCAR-4 ovarian): > 100000 nM
GI50 (OVCAR-5 ovarian): 410 nM
TGI (OVCAR-5 ovarian): > 100000 nM
GI50 (OVCAR-8 ovarian): 300 nM
TGI (OVCAR-8 ovarian): > 100000 nM
GI50 (PC-3 prostate): 139 nM
TGI (PC-3 prostate): > 100000 nM
GI50 (RPMI-8226 leukemia): 289 nM
TGI (RPMI-8226 leukemia): > 71200 nM
GI50 (RXF 393 renal): 130 nM
TGI (RXF 393 renal): > 100000 nM
GI50 (SF-268 CNS): 843 nM
TGI (SF-268 CNS): > 100000 nM
GI50 (SF-295 CNS): 45.9 nM
TGI (SF-295 CNS): > 100000 nM
GI50 (SF-539 CNS): 123 nM
TGI (SF-539 CNS): 754 nM
GI50 (SK-MEL-2 melanoma): 104 nM
TGI (SK-MEL-2 melanoma): > 31200 nM
GI50 (SK-MEL-28 melanoma): > 64400 nM
TGI (SK-MEL-28 melanoma): > 100000 nM
GI50 (SK-MEL-5 melanoma): 435 nM
TGI (SK-MEL-5 melanoma): 4020 nM
GI50 (SK-OV-3 ovarian): 383 nM
TGI (SK-OV-3 ovarian): > 100000 nM
GI50 (SN12C renal): 800 nM
TGI (SN12C renal): > 100000 nM
GI50 (SNB-19 CNS): 285 nM
TGI (SNB-19 CNS): > 100000 nM
GI50 (SNB-75 CNS): 26.6 nM
TGI (SNB-75 CNS): 262 nM
GI50 (SR leukemia): 37.5 nM
TGI (SR leukemia): > 100000 nM
GI50 (SW-620 colon): 73.2 nM
TGI (SW-620 colon): > 100000 nM
TGI (T-47D breast): > 100000 nM
GI50 (TK-10 renal): > 73800 nM
TGI (TK-10 renal): > 100000 nM
GI50 (U251 CNS): 116 nM
TGI (U251 CNS): > 100000 nM
GI50 (UACC-257 melanoma): 22200 nM
TGI (UACC-257 melanoma): > 100000 nM
GI50 (UACC-62 melanoma): 61.8 nM
TGI (UACC-62 melanoma): > 100000 nM
GI50 (UO-31 renal): 649 nM
TGI (UO-31 renal): > 100000 nM
